Source: PubChem BioAssay AID330 (DTP/NCI, 2004)
Several values for one entry are separate records, joined by “and”; a condition that tells them apart may be missing. Equal values may be shown once. Inconclusive results and toxic doses are left out. The calls were made as follows: active = survival T/C of 150% or more; inactive = T/C below 125% in these data.

Tested on: P388 leukemia ip, CD2F1 mice, survival T/C
Test: NCI In Vivo Anticancer Drug Screen. Data for tumor model P388 Leukemia (intraperitoneal) in CD2F1 (CDF1) mice
Settings: endpoint: median survival time, higher = longer survival
In short: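 Mice carrying the transplanted tumor received test compound or vehicle. Survival was recorded in each group, and the value is the treated-group measurement divided by that of the vehicle-treated control group.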

[1] = dose: 12.5 mg/kg/injection, schedule: Q01DX009 (ip), vehicle: saline
[2] = dose: 50.0 mg/kg/injection, schedule: Q01DX005 (ip), vehicle: saline with Tween-80
[3] = dose: 100.0 mg/kg/injection, schedule: Q01DX005 (ip), vehicle: saline with Tween-80
[4] = dose: 100.0 mg/kg/injection, schedule: Q01DX009 (ip), vehicle: Klucel (hydroxypropylcellulose) (HPC)
[5] = dose: 50.0 mg/kg/injection, schedule: Q01DX009 (ip), vehicle: saline with Tween-80
[6] = dose: 60.0 mg/kg/injection, schedule: Q01DX005 (ip), vehicle: Klucel (hydroxypropylcellulose) (HPC)
[7] = dose: 120.0 mg/kg/injection, schedule: Q01DX005 (ip), vehicle: Klucel (hydroxypropylcellulose) (HPC)
[8] = dose: 240.0 mg/kg/injection, schedule: Q01DX005 (ip), vehicle: Klucel (hydroxypropylcellulose) (HPC)
[9] = dose: 12.5 mg/kg/injection, schedule: Q01DX009 (ip), vehicle: Klucel (hydroxypropylcellulose) (HPC)
[10] = dose: 25.0 mg/kg/injection, schedule: Q01DX009 (ip), vehicle: Klucel (hydroxypropylcellulose) (HPC)
[11] = dose: 50.0 mg/kg/injection, schedule: Q01DX009 (ip), vehicle: Klucel (hydroxypropylcellulose) (HPC)
[12] = dose: 60.0 mg/kg/injection, schedule: Q01DX005 (ip), vehicle: saline with Tween-80
[13] = dose: 120.0 mg/kg/injection, schedule: Q01DX005 (ip), vehicle: saline with Tween-80
[14] = dose: 240.0 mg/kg/injection, schedule: Q01DX005 (ip), vehicle: saline with Tween-80

Measured: T/C

C1=C(C2CCCC3[C@@H]4C[C@@H](CN23)C2CCCCN2C4)CCC2[C@H]3C[C@H](CN12)C1CCCCN1C3 (stereo not given in full)
inactive: dose: 3.75 mg/kg/injection, schedule: Q01DX005 (ip), vehicle: Klucel (hydroxypropylcellulose) (HPC) 106 % of control | dose: 7.5 mg/kg/injection, schedule: Q01DX005 (ip), vehicle: Klucel (hydroxypropylcellulose) (HPC) 104 % of control | dose: 15.0 mg/kg/injection, schedule: Q01DX005 (ip), vehicle: Klucel (hydroxypropylcellulose) (HPC) 110 % of control and 96 % of control | dose: 30.0 mg/kg/injection, schedule: Q01DX005 (ip), vehicle: Klucel (hydroxypropylcellulose) (HPC) 100 % of control

COc1ccc(-n2c(C)c(COC(C)=O)c(COC(C)=O)c2C)cc1
active: [1] 157 % of control and 163 % of control

N#CN(Cc1ccccc1)Cc1ccccc1.[I][Sn]([c]1ccccc1)([c]1ccccc1)[c]1ccccc1
inactive: dose: 1.5 mg/kg/injection, schedule: Q01DX005 (ip), vehicle: saline with Tween-80 101 % of control | dose: 3.0 mg/kg/injection, schedule: Q01DX005 (ip), vehicle: saline with Tween-80 108 % of control | dose: 6.0 mg/kg/injection, schedule: Q01DX005 (ip), vehicle: saline with Tween-80 100 % of control | dose: 6.25 mg/kg/injection, schedule: Q01DX005 (ip), vehicle: saline with Tween-80 94 % of control

N#C/C(C(N)=O)=C(\C(=O)c1ccccc1)c1ccccc1
inactive: [2] 99 % of control | [3] 96 % of control

O=[N+]([O-])C(CO)C(CO)[N+](=O)[O-] (stereo not given)
inactive: [4] 110 % of control | dose: 100.0 mg/kg/injection, schedule: Q01DX009 (ip), vehicle: suspension in saline 103 % of control | dose: 200.0 mg/kg/injection, schedule: Q01DX009 (ip), vehicle: Klucel (hydroxypropylcellulose) (HPC) 108 % of control | dose: 200.0 mg/kg/injection, schedule: Q01DX009 (ip), vehicle: suspension in saline 100 % of control | dose: 400.0 mg/kg/injection, schedule: Q01DX009 (ip), vehicle: Klucel (hydroxypropylcellulose) (HPC) 111 % of control | dose: 400.0 mg/kg/injection, schedule: Q01DX009 (ip), vehicle: suspension in saline 109 % of control

CCCCCCCCCCCCCCCC[N+](C)(C)CC(=O)O
inactive: dose: 12.5 mg/kg/injection, schedule: Q01DX009 (ip), vehicle: saline with Tween-80 104 % of control | dose: 25.0 mg/kg/injection, schedule: Q01DX009 (ip), vehicle: saline with Tween-80 86 % of control | [5] 105 % of control

C[C@]12C=CC(=O)C=C1CC[C@@H]1[C@@H]2[C@@H](O)C[C@@]2(C)[C@H]1CC[C@]2(O)C(=O)COC(=O)CCC1CCCC1
inactive: dose: 100.0 mg/kg/injection, schedule: Q04DX003 (ip), vehicle: saline with Tween-80 104 % of control | dose: 200.0 mg/kg/injection, schedule: Q04DX003 (ip), vehicle: saline with Tween-80 100 % of control | dose: 400.0 mg/kg/injection, schedule: Q04DX003 (ip), vehicle: saline with Tween-80 91 % of control

CC(/C=C/c1ccccc1)=N\NC(=O)c1ccccc1O
inactive: [6] 93 % of control | [7] 95 % of control | [8] 89 % of control

COc1ccc(/C(C[P+](c2ccccc2)(c2ccccc2)c2ccccc2)=N/OC(C)(C)OC)cc1
inactive: dose: 6.25 mg/kg/injection, schedule: Q01DX009 (ip), vehicle: Klucel (hydroxypropylcellulose) (HPC) 98 % of control | [9] 100 % of control | [10] 106 % of control | [11] 101 % of control

N#CCc1cccc2c(=O)cc(-c3ccccc3)oc12
inactive: dose: 50.0 mg/kg/injection, schedule: Q01DX005 (ip), vehicle: Klucel (hydroxypropylcellulose) (HPC) 106 % of control | dose: 100.0 mg/kg/injection, schedule: Q01DX005 (ip), vehicle: Klucel (hydroxypropylcellulose) (HPC) 96 % of control | dose: 200.0 mg/kg/injection, schedule: Q01DX005 (ip), vehicle: Klucel (hydroxypropylcellulose) (HPC) 87 % of control

CN(C)CCOC(=O)Nc1ccc(Cc2ccc(NC(=O)OCCN(C)C)cc2)cc1
inactive: dose: 15.0 mg/kg/injection, schedule: Q01DX005 (ip), vehicle: saline with Tween-80 109 % of control | dose: 30.0 mg/kg/injection, schedule: Q01DX005 (ip), vehicle: saline with Tween-80 101 % of control | [12] 101 % of control and 109 % of control

CCOC(=O)NC(C)(C)CN(C(=O)OCC)C(C)(C)CO
inactive: dose: 50.0 mg/kg/injection, schedule: Q04DX003 (ip), vehicle: saline 100 % of control | dose: 100.0 mg/kg/injection, schedule: Q04DX003 (ip), vehicle: saline 109 % of control | dose: 200.0 mg/kg/injection, schedule: Q04DX003 (ip), vehicle: saline 109 % of control

CCCOc1ccc(C(N)=S)cc1
inactive: [9] 98 % of control and 103 % of control | [10] 101 % of control and 105 % of control | [11] 115 % of control and 120 % of control and 96 % of control | [4] 86 % of control

COc1ccc([N+](=O)[O-])cc1NOC(C)=O
inactive: dose: 100.0 mg/kg/injection, schedule: Q04DX003 (ip), vehicle: Klucel (hydroxypropylcellulose) (HPC) 111 % of control | dose: 200.0 mg/kg/injection, schedule: Q04DX003 (ip), vehicle: Klucel (hydroxypropylcellulose) (HPC) 119 % of control | dose: 400.0 mg/kg/injection, schedule: Q04DX003 (ip), vehicle: Klucel (hydroxypropylcellulose) (HPC) 94 % of control

N#Cc1ccc(OC(=O)Nc2c(Br)cc(Br)cc2Br)cc1
inactive: [12] 93 % of control | [13] 99 % of control | [14] 99 % of control

COc1ccc(C(=O)c2[nH]ncc2Nc2ccccc2)cc1
inactive: [6] 97 % of control | [7] 117 % of control | [8] 91 % of control

O=S(=O)(/N=C1C=C/C(=N\S(=O)(=O)c2ccccc2)C2C/1C2(c1ccccc1)c1ccccc1)c1ccccc1 (stereo not given)
inactive: dose: 50.0 mg/kg/injection, schedule: Q01DX001 (ip), vehicle: Klucel (hydroxypropylcellulose) (HPC) 98 % of control | dose: 100.0 mg/kg/injection, schedule: Q01DX001 (ip), vehicle: Klucel (hydroxypropylcellulose) (HPC) 97 % of control | dose: 200.0 mg/kg/injection, schedule: Q01DX001 (ip), vehicle: Klucel (hydroxypropylcellulose) (HPC) 99 % of control

N#CC#Cc1cccc(C#CC#N)c1
inactive: dose: 6.25 mg/kg/injection, schedule: Q01DX001 (ip), vehicle: saline with Tween-80 110 % of control | dose: 12.5 mg/kg/injection, schedule: Q01DX001 (ip), vehicle: saline with Tween-80 100 % of control

O=S1C2CCC(Cl)C1CCC2Cl (stereo not given)
inactive: dose: 0.78 mg/kg/injection, schedule: Q01DX009 (ip), vehicle: Klucel (hydroxypropylcellulose) (HPC) 112 % of control | dose: 1.56 mg/kg/injection, schedule: Q01DX009 (ip), vehicle: Klucel (hydroxypropylcellulose) (HPC) 90 % of control

COc1nc2nc(SC(CC(=O)O)C(=O)c3ccc(Cl)cc3)[nH]c2c2ccccc12 (stereo not given)
inactive: [12] 97 % of control | [13] 95 % of control | [14] 92 % of control

C=C1CCC2(O)C(=C)C(=O)OC2C2C(=C)CCC12 (stereo not given)
inactive: dose: 4.0 mg/kg/injection, schedule: Q01DX009 (ip), vehicle: Klucel (hydroxypropylcellulose) (HPC) 96 % of control | dose: 8.0 mg/kg/injection, schedule: Q01DX009 (ip), vehicle: Klucel (hydroxypropylcellulose) (HPC) 100 % of control | dose: 16.0 mg/kg/injection, schedule: Q01DX009 (ip), vehicle: Klucel (hydroxypropylcellulose) (HPC) 102 % of control | dose: 32.0 mg/kg/injection, schedule: Q01DX009 (ip), vehicle: Klucel (hydroxypropylcellulose) (HPC) 110 % of control

CCOC(=O)CC(=O)c1sc(Nc2ccccc2)c(C#N)c1N
inactive: [2] 98 % of control | [3] 90 % of control | dose: 200.0 mg/kg/injection, schedule: Q01DX005 (ip), vehicle: saline with Tween-80 90 % of control

O=S(=O)(O)c1cccc(/C(=N\Nc2ccccn2)c2ccccn2)c1
inactive: [5] 100 % of control | dose: 100.0 mg/kg/injection, schedule: Q01DX009 (ip), vehicle: saline with Tween-80 102 % of control | dose: 200.0 mg/kg/injection, schedule: Q01DX009 (ip), vehicle: saline with Tween-80 100 % of control

S=C(N\N=C/C(/C=C/c1ccccc1)=N\NC(=S)Nc1ccc(Cl)cc1)Nc1ccc(Cl)cc1
inactive: dose: 400.0 mg/kg/injection, schedule: Q01DX001 (ip), vehicle: Klucel (hydroxypropylcellulose) (HPC) 88 % of control

CCOC(=O)C[N+]1(C)C2CCC1CC(OC(=O)C(CO)c1ccccc1)C2 (stereo not given)
inactive: [1] 100 % of control | dose: 25.0 mg/kg/injection, schedule: Q01DX009 (ip), vehicle: saline 100 % of control
